IC50 data for ten compounds are collected here from patent US10179773B2, “Isoxazole carboxamides as irreversible SMYD inhibitors” (EPIZYME, INC., priority 2014, dated 2019).

Molecules are shown by their SMILES.

Experiment [1] concerns the target T1, SMYD3 (Homo sapiens (Human), UniProt Q9H7B4). Nature of the experiment: SMYD3 Cell Assay (Trimethyl-MEKK2 In-Cell Western, 293T/17 cells). In kind it is cell-based. The conditions noted are these: 293T/17 cells transfected with MEKK2-flag and SMYD3; 24 hours; trimethyl-MEKK2 signal; average of n = 1 to n = 50. The source says: 293T/17 adherent cells were purchased from ATCC (American Type Culture Collection), Manassas, Va., USA. MEM/Glutamax medium, Optimem Reduced Serum medium, penicillin-streptomycin, 0.05% trypsin and 1× D-PBS were purchased from Life Technologies, Grand Island, N.Y., USA. PBS-10× was purchased from Ambion, Life Technologies, Grand Island, N.Y., USA. PBS with Tween 20 (PBST (10×)) was purchased from KPL, Gaithersburg, Md., USA. Tet System FBS-approved FBS US Source was purchased from Clontech, Mountain View, Calif., USA. Odyssey blocking buffer, 800CW goat anti-rabbit IgG (H+L) antibody, 680CW Goat anti-mouse IgG (H+L) and Licor Odyssey infrared scanner were purchased from Licor Biosciences, Lincoln, Nebr., USA. Tri-methyl-Lysine [A260]-MEKK2 antibody, MEKK2 and SMYD3 plasmids were made at Epizyme. Anti-flag monoclonal mouse antibody was purchased from Sigma, St. Louis, Mo., USA. Methanol was purchased from VWR, Franklin, Mass., USA. 10% Tween 20 was purchased from KPL, Inc., Gaithersburg, Md., USA. Fugene was purchased from Promega, Madison, Wis., USA. The Biotek ELx405 was purchased from BioTek, Winooski, Vt., USA. The multidrop combi was purchased from Thermo Scientific, Waltham, Mass., USA.
293T/17 adherent cells were maintained in growth medium (MEM/Glutamax medium supplemented with 10% v/v Tet System FBS and cultured at 37° C. under 5% CO2.
293T/17 cells were seeded in assay medium at a concentration of 33,333 cells per cm^2 in 30 mL medium per T150 flask and incubated at 37° C. under 5% CO2. Plasmids were prepared for delivery to cells by first mixing 1350 μL Opti-MEM with Fugene (81 μL) in a sterile Eppendorf and incubated for five minutes at room temperature (RT). MEKK2-flag (13.6 ug/T150) MEKK2 p3XFlag-CMV-14 with C-3XFlag and SMYD3 (0.151 ug/T150) SMYD3 p3XFlag-CMV-14 without C-3XFlag plasmids were aliquotted to a 1.7 mL sterile microfuge tube. The gene ID for MEKK2 and SMYD3 is NM_006609.3 and Q9H7B4, respectively. Entire volume of Opti-MEM/Fugene mixture was then added to a microfuge tube containing DNA plasmid, mixed and then incubated ×15 minutes at RT. The medium on the 293T/17 cells was refreshed, and the DNA/Fugene complex is added aseptically to each flask, rocked gently, and incubated at 37 C for 5 hours. Medium was then removed, and cells were washed once with PBS in the flask. Trypsin 0.05% (3 mL) was added and cells incubated for three minutes. Room temperature MEM+10% Tet system FBS was added and cells were mixed gently, and counted using the Vi-cell. Cells were seeded at 100,000 cells/mL in 50 μL MEM/10% Tet FBS/Pen/Strep to a 384 well black/clear poly-D-lysine coated plate containing test agent diluted in DMSO. The final top concentration of test compound was 40 μM. […] Plates were incubated×30 minutes at RT in low-airflow area, followed by incubation at 37° C. under 5% CO2 for 24 hours. Medium was aspirated from all wells of assay plates prior to fixation and permeabilization with ice cold (−20° C.) methanol (90 μL/well) for ten minutes. Plates were rinsed with PBS three times on BioTek ELx405. PBS was removed with a final aspiration, and Odyssey blocking buffer (50 μL/well) was added to each well and incubated for one hour at RT. Primary antibody solution was prepared (anti-trimethyl-MEKK2 at 1:600 dilution plus mouse anti-flag antibody at 1:10,000 dilution in diluent (Odyssey Blocking buffer+0.1% Tween 20)) and 20 μL per well was dispensed using the Multidrop Combi. Assay plates were then sealed with foil, and incubated overnight at 4° C. Plates were washed five times with PBS-Tween (1×) on Biotek ELx405 and blotted on paper towel to remove excess reagent. […]

For experiment [2], the target named is T1, SMYD3. In words: SMYD3 Biochemical Assay (MEKK2 protein substrate, 3H-SAM, SPA). The conditions noted are these: 30 min preincubation with SMYD3, average of n = 1 to n = 50, read-out: SMYD3 Biochem IC50. The source says: S-adenosylmethionine (SAM), S-adenosylhomocysteine (SAH), Tris, Tween20, dimethylsulfoxide (DMSO), bovine skin gelatin (BSG), and Tris(2-carboxyethyl)phosphine hydrochloride solution (TCEP) were purchased from Sigma-Aldrich at the highest level of purity possible. ^3H-SAM was purchase from American Radiolabeled Chemicals with a specific activity of 80 Ci/mmol. 384-well opaque white OptiPlates and SPA beads (Perkin Elmer, catalog # RPNQ0013) were purchased from PerkinElmer.
N-terminally GST-tagged MEKK2 (MAP3K2) protein corresponding to reference sequence AAF63496.3 was purchased from Life Technologies (catalog # PV4010). This protein was expressed in High Five insect cells and purified to >85% purity. Protein identity was confirmed by MS/MS analysis after proteolytic digestion. The protein sequence used was:
Full-length human SMYD3 isoform 1 (BAB86333) was inserted into a modified pET21b plasmid containing a His6 tag and TEV and SUMO cleavage sites. Because two common variants of SMYD3 exist in the population, site directed mutagenesis was subsequently performed to change amino acid 13 from an asparagine to a lysine, resulting in plasmid pEPZ533. A lysine at position 13 conforms to the more commonly occurring sequence (NP_001161212).
E. coli (BL21 codonplus RIL strain, Stratagene) were transformed with plasmid pEPZ553 by mixing competent cells and plasmid DNA and incubating on ice for 30 minutes followed by heat shock at 42° C. for 1 minute and cooling on ice for 2 minutes. Transformed cells were grown and selected on LB agar with 100 μg/mL ampicillin and 17 μg/mL chloramphenicol at 37° C. overnight. A single clone was used to inoculate 200 mL of LB medium with 100 μg/mL ampicillin and 17 μg/mL chloramphenicol and incubated at 37° C. on an orbital shaker at 180 rpm. Once in log growth, the culture was diluted 1:100 into 2 L of LB medium and grown until OD600 was about 0.3 after which the culture was incubated at 15° C. and 160 rpm. Once OD600 reached about 0.4, IPTG was added to a final concentration of 0.1 mM and the cells were grown overnight at 15° C. and 160 rpm. Cells were harvested by centrifugation at 8000 rpm, for 4 minutes at 4° C. and stored at −80° C. for purification.
Expressed full-length human His-tagged SMYD3 protein was purified from cell paste by Nickel affinity chromatography after equilibration of the resin with Buffer A (25 mM Tris, 200 mM NaCl, 5% glycerol, 5 mM β-mercaptoethanol, pH7.8). The column was washed with Buffer B (Buffer A plus 20 mM imidazole) and His-tagged SMYD3 was eluted with Buffer C (Buffer A plus 300 mM imidazole). The His tag, TEV and SUMO cleavage sites were removed generating native SMYD3 by addition of ULP1 protein at a ratio of 1:200 (ULP1:SMYD3). Imidazole was removed by dialysis overnight in Buffer A. The dialyzed solution was applied to a second Nickel column and the native SMYD3 protein was collected from the column flow-through. The flow-through was dialyzed in Buffer D (25 mM Tris, 5% glycerol, 5 mM β-mercaptoethanol, 50 mM NaCl, pH7.8) and ULP1 was removed using a Q sepharose fast flow column. SMYD3 was eluted in Buffer A and further purified using an S200 size-exclusion column equilibrated with Buffer A. SMYD3 was concentrated to 2 mg/mL with a final purity of 89%.
The assays were all performed in a buffer consisting of 25 mM Tris-Cl pH 8.0, 1 mM TCEP, 0.005% BSG, and 0.005% Tween 20, prepared on the day of use. Compounds in 100% DMSO (1 ul) were spotted into a 384-well white opaque OptiPlate using a Bravo automated liquid handling platform outfitted with a 384-channel head (Agilent Technologies). DMSO (1 ul) was added to Columns 11, 12, 23, 24, rows A-H for the maximum signal control and 1 ul of SAH, a known product and inhibitor of SMYD3, was added to columns 11, 12, 23, 24, rows I-P for the minimum signal control. A cocktail (40 ul) containing the SMYD3 enzyme was added by Multidrop Combi (Thermo-Fisher). […]

T1 sequence (Q9H7B4 whole entry): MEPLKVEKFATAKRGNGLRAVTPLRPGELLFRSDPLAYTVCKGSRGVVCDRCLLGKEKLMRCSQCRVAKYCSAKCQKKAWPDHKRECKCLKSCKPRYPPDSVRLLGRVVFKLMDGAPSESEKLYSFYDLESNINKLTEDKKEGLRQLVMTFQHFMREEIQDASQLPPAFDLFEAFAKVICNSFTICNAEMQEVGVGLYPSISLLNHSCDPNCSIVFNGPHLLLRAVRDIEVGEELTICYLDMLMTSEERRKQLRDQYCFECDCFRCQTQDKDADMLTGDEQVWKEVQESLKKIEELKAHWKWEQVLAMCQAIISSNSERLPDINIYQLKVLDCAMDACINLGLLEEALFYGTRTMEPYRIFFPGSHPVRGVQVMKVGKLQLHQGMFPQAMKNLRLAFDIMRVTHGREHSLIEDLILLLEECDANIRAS

As to `C=CS(=O)(=O)N1CC(NC(=O)c2cc(C3CC3)on2)C1` [Cpd. No. 1, 5-cyclopropyl-N-(1-(vinylsulfonyl)azetidin-3-yl) isoxazole-3-carboxamide], the IC50 against SMYD3 [1] and on SMYD3 [2] was over 10 µM each time.
With `C=CS(=O)(=O)N[C@H]1CC[C@H](NC(=O)c2cc(C3CC3)on2)CC1` [Cpd. No. 2, 5-cyclopropyl-N-((1r,4r)-4-(vinylsulfonamido)cyclohexyl) isoxazole-3-carboxamide], at SMYD3 [2], the IC50 (in general, the concentration that gives 50% inhibition) was found to be 31 µM.
For `O=C(NC1CCN(C(=O)CCl)CC1)c1cc(C2CC2)on1` [Cpd. No. 4, N-(1-(2-chloroacetyl)piperidin-4-yl)-5-cyclopropylisoxazole-3-carboxamide], the IC50 turned out to be 6.65 µM on SMYD3 [1] and 33.5 µM at SMYD3 [2].
Take `C=CC(=O)N1CCC(NC(=O)c2cc(C3CC3)on2)CC1` [Cpd. No. 5, N-(1-acryloylpiperidin-4-yl)-5-cyclopropylisoxazole-3-carboxamide]: the figures for the IC50 at SMYD3 [1] and on SMYD3 [2] were over 10 µM and over 100 µM, respectively.
For `C=CC(=O)N[C@H]1CC[C@H](NC(=O)c2cc(C3CC3)on2)CC1` [compound 3, N-((1r,4r)-4-acrylamidocyclohexyl)-5-cyclopropylisoxazole-3-carboxamide], the figures for the IC50 against SMYD3 [1] and at SMYD3 [2] were over 10 µM and 74.1 µM, respectively.
For `C=CS(=O)(=O)N1CCC(NC(=O)c2cc(C3CC3)on2)C[C@@H]1C` (stereo partly drawn) [compound 6, 5-cyclopropyl-N-((2S)-2-methyl-1-(vinylsulfonyl)piperidin-4-yl) isoxazole-3-carboxamide], the IC50 at SMYD3 [1] was found to be 2.12 µM; at SMYD3 [2], 5.27 µM.
Take `C=CS(=O)(=O)N1CCC(NC(=O)c2cc(C3CC3)on2)C[C@H]1C` (stereo partly drawn) [compound 7, 5-cyclopropyl-N-((2R)-2-methyl-1-(vinylsulfonyl)piperidin-4-yl) isoxazole-3-carboxamide]: the values for the IC50 against SMYD3 [1] and at SMYD3 [2] were 2.19 µM and 3.68 µM, respectively.
`C=CS(=O)(=O)N[C@H]1CC[C@@H](NC(=O)c2cc(C3CC3)on2)CC1` [compound 8, 5-cyclopropyl-N-((1s,4s)-4-(vinylsulfonamido)cyclohexyl) isoxazole-3-carboxamide]: the IC50 against SMYD3 [1] and on SMYD3 [2] was over 10 µM each time.
Turning to `C=CS(=O)(=O)N1CCC(NC(=O)c2cc(C3CC3)on2)CC1` [compound 9, 5-cyclopropyl-N-(1-(vinylsulfonyl)piperidin-4-yl) isoxazole-3-carboxamide], at SMYD3 [2], the IC50 worked out at 31.7 µM.
Still for that read-out and setting: the result for `C=CS(=O)(=O)N1CCC(NC(=O)c2cc(C3CC3)on2)C1` (centres unmarked) [compound 10, 5-cyclopropyl-N-(1-(vinylsulfonyl)pyrrolidin-3-yl) isoxazole-3-carboxamide] reads over 50 µM.
